Results taken from patent US20130123323A1, “FUNGICIDAL PYRAZOLES” (E I DU PONT DE NEMOURS AND COMPANY, priority 2010, published 2013).

Tests used:
Type in all cases: in vivo
[1] = system: Botrytis cinerea; experiment: Test A: tomato botrytis, test suspension sprayed on tomato seedlings the day before inoculation; conditions: sprayed to run-off, inoculated following day, visual rating after 48 h at 20° C. + 3 days at 24° C., 100 = 100% disease control, 0 = no control, triplicate averaged
Protocol: General protocol for preparing test suspensions for Tests A-F: the test compounds were first dissolved in acetone in an amount equal to 3% of the final volume and then suspended at the desired concentration (in ppm) in acetone and purified water (50/50 mix) containing 250 ppm of the surfactant Trem® 014 (polyhydric alcohol esters). The resulting test suspensions were then used in Tests A-F. Each test was conducted in triplicate, and the results were averaged. Spraying a 200 ppm test suspension to the point of run-off on the test plants was the equivalent of a rate of 800 g/ha. The test suspension was sprayed to the point of run-off on tomato seedlings. The following day the seedlings were inoculated with a spore suspension of Botrytis cinerea (the causal agent of tomato botrytis) and incubated in saturated atmosphere at 20° C. for 48 h, and then moved to a growth chamber at 24° C. for 3 days, after which time visual disease ratings were made. Results for Tests A-F are given in Table A. In the Table, a rating of 100 indicates 100% disease control and a rating of 0 indicates no disease control (relative to the controls). A dash (-) indicates no test results.

[2] = system: Alternaria solani; experiment: Test B: tomato early blight, test suspension sprayed on tomato seedlings the day before inoculation; conditions: sprayed to run-off, inoculated following day, visual rating after 48 h at 27° C. + 5 days at 20° C., 100 = 100% disease control, triplicate averaged
Protocol: General protocol for preparing test suspensions for Tests A-F: the test compounds were first dissolved in acetone in an amount equal to 3% of the final volume and then suspended at the desired concentration (in ppm) in acetone and purified water (50/50 mix) containing 250 ppm of the surfactant Trem® 014 (polyhydric alcohol esters). The resulting test suspensions were then used in Tests A-F. Each test was conducted in triplicate, and the results were averaged. Spraying a 200 ppm test suspension to the point of run-off on the test plants was the equivalent of a rate of 800 g/ha. The test suspension was sprayed to the point of run-off on tomato seedlings. The following day the seedlings were inoculated with a spore suspension of Alternaria solani (the causal agent of tomato early blight) and incubated in a saturated atmosphere at 27° C. for 48 h, and then moved to a growth chamber at 20° C. for 5 days, after which time visual disease ratings were made. Results for Tests A-F are given in Table A. In the Table, a rating of 100 indicates 100% disease control and a rating of 0 indicates no disease control (relative to the controls). A dash (-) indicates no test results.

[3] = system: Septoria nodorum; experiment: Test C: wheat glume blotch, test suspension sprayed on wheat seedlings the day before inoculation; conditions: sprayed to run-off, inoculated following day, visual rating after 48 h at 24° C. + 9 days at 20° C., 100 = 100% disease control, triplicate averaged
Protocol: (§1) General protocol for preparing test suspensions for Tests A-F: the test compounds were first dissolved in acetone in an amount equal to 3% of the final volume and then suspended at the desired concentration (in ppm) in acetone and purified water (50/50 mix) containing 250 ppm of the surfactant Trem® 014 (polyhydric alcohol esters). The resulting test suspensions were then used in Tests A-F. Each test was conducted in triplicate, and the results were averaged. Spraying a 200 ppm test suspension to the point of run-off on the test plants was the equivalent of a rate of 800 g/ha. The test suspension was sprayed to the point of run-off on wheat seedlings. The following day the seedlings were inoculated with a spore suspension of Septoria nodorum (the causal agent of wheat glume blotch) and incubated in a saturated atmosphere at 24° C. for 48 h, and then moved to a growth chamber at 20° C. for 9 days, after which time visual disease ratings were made. Results for Tests A-F are given in Table A. In the Table, a rating of 100 indicates 100% disease control and a rating of 0 indicates no disease control (relative to the controls). A dash (-) indicates no test results.

[4] = system: Septoria tritici; experiment: Test D: wheat leaf blotch, test suspension sprayed on wheat seedlings the day before inoculation; conditions: sprayed to run-off, inoculated following day, visual rating after 48 h at 24° C. + 19 days at 20° C., 100 = 100% disease control, triplicate averaged
Protocol: as §1, with “of Septoria tritici (the causal” for “of Septoria nodorum (the causal”, “of wheat leaf blotch) and” for “of wheat glume blotch) and”, “incubated in saturated atmosphere” for “incubated in a saturated atmosphere”, “and then the seedlings were moved to” for “and then moved to”, “C. for 19 additional days, after” for “C. for 9 days, after”

[5] = system: Puccinia recondita f. sp. tritici; experiment: Test E1: wheat leaf rust, wheat seedlings sprayed after inoculation; conditions: wheat seedlings inoculated, 24 h + 2 days at 20° C., then sprayed to run-off; visual rating 4 days later; 100 = 100% disease control; triplicate averaged
Protocol: as §1, with “Wheat” for “The test suspension was sprayed to the point of run-off on wheat seedlings. The following day the”, “Puccinia recondita f. sp. tritici” for “Septoria nodorum”, “leaf rust)” for “glume blotch)”, “20°” for “24°”, “24” for “48”, “2 days. At the end of this time the test suspension was sprayed to the point of run-off on the wheat seedlings, and then the seedlings were moved to a growth chamber at 20° C. for 4” for “9”

[6] = system: Puccinia recondita f. sp. tritici; experiment: Test E2: wheat leaf rust, test suspension sprayed on wheat seedlings the day before inoculation; conditions: sprayed to run-off, inoculated following day, visual rating after 24 h + 6 days at 20° C., 100 = 100% disease control, triplicate averaged
Protocol: as §1, with “Puccinia recondita f. sp. tritici” for “Septoria nodorum”, “leaf rust)” for “glume blotch)”, “20°” for “24°”, “24” for “48”, “6” for “9”

[7] = system: Blumeria graminis f. sp. tritici; experiment: Test F: wheat powdery mildew, test suspension sprayed on wheat seedlings the day before inoculation; conditions: sprayed to run-off, inoculated with spore dust following day, visual rating after 8 days at 20° C., 100 = 100% disease control, triplicate averaged
Protocol: as §1, with “spore dust” for “spore suspension”, “of Blumeria graminis f. sp. tritici (also known as Erysiphe graminis f. sp. tritici, the” for “of Septoria nodorum (the”, “wheat powdery mildew)” for “wheat glume blotch)”, “in” for “in a saturated atmosphere at 24° C. for 48 h, and then moved to”, “for 8” for “for 9”

Structure (SMILES) | Test A disease control rating [1] [%] | Test B disease control rating [2] [%] | Test C disease control rating [3] [%] | Test D disease control rating [4] [%] | Test E1 disease control rating [5] [%] | Test E2 disease control rating [6] [%] | Test F disease control rating [7] [%]
Cc1nn(C)c(C(Cl)c2ccc(F)cc2F)c1-c1ccc(F)cc1Cl (centres unmarked) [Compound 2, 5-[Chloro(2,4-difluorophenyl)methyl]-4-(2-chloro-4-fluorophenyl)-1,3-dimethyl-1H-pyrazole] | 99 | 0 | 0 | 100 | 0 | 94 | 0
Cc1nn(C)c(C(Cl)c2ccc(F)cc2Cl)c1-c1c(F)cccc1Cl (centres unmarked) [Compound 7] | – | – | – | 100 | – | 100 | 100
Cc1nn(C)c(C(Cl)c2ccc(F)cc2F)c1-c1c(F)cccc1F (centres unmarked) [Compound 5] | 100 | 100 | 89 | 100 | 9 | 100 | 100
COc1cc(F)c(C(F)c2c(-c3c(F)cccc3F)c(C)nn2C)c(F)c1 (centres unmarked) [Compound 3] | 100 | 46 | 0 | 100 | 98 | 100 | 99
Cc1nn(C)c(C(F)c2ccc(F)cc2F)c1-c1ccc(F)cc1Cl (centres unmarked) [Compound 1, 4-(2-Chloro-4-fluorophenyl)-5-[(2,4-difluorophenyl)fluoromethyl]-1,3-dimethyl-1H-pyrazole] | 100 | 83 | 0 | 98 | 40 | 99 | 69
Cc1nn(C)c(C(F)c2ccc(F)cc2F)c1-c1c(F)cccc1F (centres unmarked) [Compound 4] | 99 | 98 | 0 | 52 | 66 | 18 | 0
Cc1nn(C)c(C(F)c2ccc(F)cc2Cl)c1-c1c(F)cccc1Cl (centres unmarked) [Compound 6] | – | – | – | 96 | – | 98 | 87
